The test system of this experiment is modified version of the GPR119 receptor (94% identity to human receptor). Kind of experiment: cAMP production assay (LANCE cAMP kit, TR-FRET) in HEK-293 cells. The note with it: for cAMP production in HEK-293 cells: HEK-293 cells stably expressing modified GPR119, test compounds 0.2 nM to 10 μM, one-hour incubation at ambient temperature; for Fold over baseline: increase in cAMP relative to basal levels, agonist activity if 1.5-fold or greater. Type of experiment: cell-based. As to the method: The assay utilized HEK-293 cells that stably express a modified version of the GPR119 receptor (94% identity to human receptor), under the control of a CMV promoter containing a tet-on element for tetracycline-inducible expression. GPR119 agonist-induced cyclic AMP (cAMP) production was measured in this cell line using the LANCE cAMP kit (Perkin Elmer, Waltham, Mass.). To generate a working stock of cells for the assay, cells were treated overnight with 1 μg/mL doxycycline at 37° C. in the presence of 5% CO2 to induce receptor expression. Cells were then harvested by enzymatic dissociation with 0.05% trypsin, resuspended in freezing medium (DMEM growth medium with 10% each of fetal bovine serum and DMSO), aliquoted and frozen at −80° C. On the day of the assay, frozen cells were thawed, washed 1× in PBS and resuspended in Hank's buffered salt solution (HBSS) containing 5 mM HEPES, 0.1% BSA and Alexa Fluor 647-conjugated anti-cAMP antibody (diluted 1:100). The cell suspension was then transferred to a Proxiplate Plus white 384-well assay plate (Perkin-Elmer) at 2000 cells/well. Test compounds at final concentrations ranging from 0.2 nM to 10 μM were added to the assay plate, followed by a one-hour incubation at ambient temperature (volume=10 μL/well). DMSO concentration was held constant at 0.5%. After incubation with test compounds, 10 μL of a detergent buffer containing a biotinylated cAMP/Europium-conjugated streptavidin complex (Europium-labeled cAMP tracer) were added to each well on the assay plate, followed by a 2-hour incubation at ambient temperature. During this incubation cAMP released from lysed cells competes with the Europium-labeled cAMP tracer for binding to the Alexa Fluor 647-conjugated antibody. […] Cellular cAMP levels were then determined by interpolation of raw signal data using a cAMP standard curve. Compounds were determined to have agonist activity if they stimulated a 1.5-fold or greater increase in cAMP relative to basal levels.

For the compound `CCCCCCCCCCc1cnc(N2CCC(N3CCC[C@H](Nc4cc(F)c(S(C)(=O)=O)cc4F)C3=O)CC2)nc1` [Example 46, (S)-1′-(5-decylpyrimidin-2-yl)-3-(2,5-difluoro-4-(methylsulfonyl)phenylamino)-[1,4′-bipiperidin]-2-one], the “cAMP production in HEK-293 cells” value was determined as 10.7 nmol and the Fold over baseline is 2.2.
On the same counts, the results for `CS(=O)(=O)c1cc(F)c(N[C@H]2CCCN(C3CCN(c4ncc(I)cn4)CC3)C2=O)cc1F` [Example 47, (S)-3-(2,5-difluoro-4-(methylsulfonyl)phen-ylamino)-1′-(5-iodopyrimidin-2-yl)-[1,4′-bipiperidin]-2-one] are 9.3 nmol and 2.0.
Turning to `CCc1cnc(N2CCC(N3CCC[C@H](Nc4cc(Cl)c(S(C)(=O)=O)cc4F)C3=O)CC2)nc1` [Example 48, (S)-3-(5-chloro-2-fluoro-4-(methyl-sulfonyl)phenylamino)-1′-(5-ethylpyrimidin-2-yl)-[1,4′-bipiperidin]-2-one], the “cAMP production in HEK-293 cells” value came out at 16.9 nmol and the Fold over baseline was 3.0.
Turning to `CCc1cnc(N2CCC(N3CCC[C@H](Nc4c(F)cc(S(C)(=O)=O)cc4F)C3=O)CC2)nc1` [Example 49, (S)-3-(2,6-difluoro-4-(methylsulfonyl)phen-ylamino)-1′-(5-ethylpyrimidin-2-yl)-[1,4′-bipiperidin]-2-one], the “cAMP production in HEK-293 cells” value was determined as 10.6 nmol and the Fold over baseline turned out to be 2.2.
In the case of `CS(=O)(=O)c1cc(F)c(N[C@H]2CCCN(C3CCN(c4ncc(Cl)cn4)CC3)C2=O)cc1F` [Example 50, (S)-1′-(5-chloropyrimidin-2-yl)-3-(2,5-difluoro-4-(methylsulfonyl)phenylamino)-[1,4′-bipiperidin]-2-one], the “cAMP production in HEK-293 cells” value is 11.4 nmol and the Fold over baseline is listed as 2.3.
On the same counts, the results for `CS(=O)(=O)c1cc(F)c(N[C@H]2CCCN(C3CCN(c4ncc(C#N)cn4)CC3)C2=O)cc1F` [Example 51, (S)-2-(3-(2,5-difluoro-4-(methylsulfonyl)phenylamino)-2-oxo-[1,4′-bipiperidin]-1′-yl)pyrimidine-5-carbonitrile] are 8.8 nmol and 2.7.
Take `CS(=O)(=O)c1cc(F)c(N[C@H]2CCCN(C3CCN(c4ccc(Cl)nn4)CC3)C2=O)cc1F` [Example 52, (S)-1′-(6-chloropyridazin-3-yl)-3-(2,5-difluoro-4-(methylsulfonyl)phenylamino)-[1,4′-bipiperidin]-2-one]: the “cAMP production in HEK-293 cells” value was 19.6 nmol and the Fold over baseline turned out to be 4.6.
On to `CS(=O)(=O)c1cc(F)c(N[C@H]2CCCN(C3CCN(c4ccc(C(F)(F)F)cn4)CC3)C2=O)cc1F` [Example 54, (S)-3-(2,5-difluoro-4-(methylsulfonyl)phen-ylamino)-1′-(5-(trifluoromethyl)pyridin-2-yl)-[1,4′-bipiperidin]-2-one], for which the “cAMP production in HEK-293 cells” value stood at 7.3 nmol and the Fold over baseline was determined as 2.3.
On the same counts, the results for `CCc1cnc(N2CCC(N3CCC[C@H](Nc4ccc(S(C)(=O)=O)cc4C(F)(F)F)C3=O)CC2)nc1` [Example 55, (S)-1′-(5-ethylpyrimidin-2-yl)-3-(4-(methylsulfonyl)-2-(trifluoromethyl)phenylamino)-[1,4′-bipiperidin]-2-one] are 9.3 nmol and 2.6.
On to `CCc1cnc(N2CCC(N3CCC[C@H](Nc4ccc(S(C)(=O)=O)c(Cl)c4)C3=O)CC2)nc1` [Example 56, (S)-3-(3-chloro-4-(methylsulfonyl)phen-ylamino)-1′-(5-ethylpyrimidin-2-yl)-[1,4′-bipiperidin]-2-one], for which the “cAMP production in HEK-293 cells” value worked out at 18.0 nmol and the Fold over baseline came out at 2.4.
For the compound `CS(=O)(=O)c1cc(F)c(N[C@H]2CCCN(C3CCN(c4cnc(Cl)cn4)CC3)C2=O)cc1F` [Example 57, (S)-1′-(5-chloropyrazin-2-yl)-3-(2,5-difluoro-4-(methylsulfonyl)phenylamino)-[1,4′-bipiperidin]-2-one], the “cAMP production in HEK-293 cells” value stood at 22.8 nmol and the Fold over baseline was 3.3.
Consider `CCc1cnc(N2CCC(N3CCC[C@H](Nc4cc(C)c(S(C)(=O)=O)cc4F)C3=O)CC2)nc1` [Example 58, (S)-1′-(5-ethylpyrimidin-2-yl)-3-(2-fluoro-5-methyl-4-(methylsulfonyl)phenylamino)-[1,4′-bipiperidin]-2-one], for which the “cAMP production in HEK-293 cells” value was 13.2 nmol and the Fold over baseline is recorded as 2.4.
`CCc1cnc(N2CCC(N3CCC[C@H](Nc4cc(F)c(S(C)(=O)=O)cc4F)C3=O)CC2)cn1` [Example 59, (S)-3-(2,5-difluoro-4-(methylsulfonyl)phenylamino)-1′-(5-ethylpyrazin-2-yl)-[1,4′-bipiperidin]-2-one]: the “cAMP production in HEK-293 cells” value was 22.6 nmol and the Fold over baseline is 3.4.
Take `CC(C)c1cnc(N2CCC(N3CCC[C@H](Nc4cc(F)c(S(C)(=O)=O)cc4F)C3=O)CC2)cn1` [Example 60, (S)-3-(2,5-difluoro-4-(methylsulfonyl)phenylamino)-1′-(5-isopropylpyrazin-2-yl)-[1,4′-bipiperidin]-2-one]: the “cAMP production in HEK-293 cells” value is 27.4 nmol and the Fold over baseline worked out at 4.4.
For `Cc1ccccc1-c1cnc(N2CCC(N3CCC[C@H](Nc4cc(F)c(S(C)(=O)=O)cc4F)C3=O)CC2)cn1` [Example 61, (S)-3-(2,5-difluoro-4-(methylsulfonyl)phenylamino)-1′-(5-o-tolylpyrazin-2-yl)-[1,4′-bipiperidin]-2-one], the “cAMP production in HEK-293 cells” value was determined as 19.6 nmol and the Fold over baseline stood at 3.1.
`CCc1cnc(N2CCC(N3CCCC(Nc4ccc(S(C)(=O)=O)cc4F)C3=O)CC2)nc1` (stereo not shown) [Example 62, 1′-(5-ethylpyrimidin-2-yl)-3-(2-fluoro-4-(methylsulfonyl)phenylamino)-[1,4′-bipiperidin]-2-one]: the “cAMP production in HEK-293 cells” value turned out to be 9.8 nmol and the Fold over baseline is 2.9.
`CCc1cnc(N2CCC(N3CCCC(Nc4ccc(S(C)(=O)=O)c(F)c4)C3=O)CC2)nc1` (stereo not shown) [Example 63, 1′-(5-ethylpyrimidin-2-yl)-3-(3-fluoro-4-(methylsulfonyl)phenylamino)-[1,4′-bipiperidin]-2-one]: the “cAMP production in HEK-293 cells” value is 16.2 nmol and the Fold over baseline was determined as 3.4.
On the same counts, the results for `CC(O)c1cnc(N2CCC(N3CCC[C@H](Nc4cc(F)c(S(C)(=O)=O)cc4F)C3=O)CC2)nc1` (stereo partly drawn) [Example 64, (3S)-3-(2,5-difluoro-4-(methylsulfonyl)phenylamino)-1′-(5-(1-hydroxyethyl)pyrimidin-2-yl)-[1,4′-bipiperidin]-2-one] are 7.4 nmol and 2.0.
Turning to `CS(=O)(=O)c1cc(F)c(N[C@H]2CCCN(C3CCN(c4cnc(Cl)cn4)CC3)C2=O)c(F)c1` [Example 65, (S)-1′-(5-chloropyrazin-2-yl)-3-(2,6-difluoro-4-(methylsulfonyl)phenylamino)-[1,4′-bipiperidin]-2-one], the “cAMP production in HEK-293 cells” value stood at 21.0 nmol and the Fold over baseline was determined as 3.4.
Take `CCc1cnc(N2CCC(N3CCC(Oc4ccc(-n5cnnn5)nc4)C3=O)CC2)nc1` (stereo not shown) [Example 66, 3-(6-(1H-tetrazol-1-yl)pyridin-3-yloxy)-1-(1-(5-ethylpyrimidin-2-yl)piperidin-4-yl)pyrrolidin-2-one]: the “cAMP production in HEK-293 cells” value was 4.9 nmol and the Fold over baseline was determined as 1.6.
In the case of `O=C1C(Oc2ccc(-n3cnnn3)nc2)CCN1C1CCN(c2cnc(Cl)cn2)CC1` (stereo not shown) [Example 67, 3-(6-(1H-tetrazol-1-yl)pyridin-3-yloxy)-1-(1-(5-chloropyrazin-2-yl)piperidin-4-yl)pyrrolidin-2-one], the “cAMP production in HEK-293 cells” value came to 15.6 nmol and the Fold over baseline is recorded as 2.9.
For the compound `CCc1cnc(N2CCC(N3CCC(Oc4ccc(-c5nnn(C)n5)cc4)C3=O)CC2)nc1` (stereo not shown) [Example 68, 1-(1-(5-ethylpyrimidin-2-yl)piperidin-4-yl)-3-(4-(2-methyl-2H-tetrazol-5-yl)phenoxy)pyrrolidin-2-one], the “cAMP production in HEK-293 cells” value was found to be 8.8 nmol and the Fold over baseline worked out at 1.9.
Regarding `CS(=O)(=O)c1ccc(O[C@H]2CCN(C3CCN(c4cnc(Cl)cn4)CC3)C2=O)cn1` [Example 69, (S)-1-(1-(5-chloropyrazin-2-yl)piperidin-4-yl)-3-(6-(methylsulfonyl)pyridin-3-yloxy)pyrrolidin-2-one], the “cAMP production in HEK-293 cells” value turned out to be 21.3 nmol and the Fold over baseline is 3.2.

The values above are taken from US8754226B2, “Piperidinyl-substituted lactams as GPR119 modulators” (Array BioPharma Inc., priority 2010, dated 2014).
